Here are results for two compounds from PMC5824342 (Bioconjugate Chemistry, 2017).

For series [1] the following is noted: LC-MS, previous study of the authors; cited from earlier work.
The next series addresses GRPR (Homo sapiens, UniProt P30550). Briefly: Competitive binding assay, displacement of 125I-[Tyr4]BBN on PC-3 cells. In general terms: Displacement assays read how much labelled ligand stays bound in the presence of the test substance.

Sequence of GRPR (P30550 whole entry): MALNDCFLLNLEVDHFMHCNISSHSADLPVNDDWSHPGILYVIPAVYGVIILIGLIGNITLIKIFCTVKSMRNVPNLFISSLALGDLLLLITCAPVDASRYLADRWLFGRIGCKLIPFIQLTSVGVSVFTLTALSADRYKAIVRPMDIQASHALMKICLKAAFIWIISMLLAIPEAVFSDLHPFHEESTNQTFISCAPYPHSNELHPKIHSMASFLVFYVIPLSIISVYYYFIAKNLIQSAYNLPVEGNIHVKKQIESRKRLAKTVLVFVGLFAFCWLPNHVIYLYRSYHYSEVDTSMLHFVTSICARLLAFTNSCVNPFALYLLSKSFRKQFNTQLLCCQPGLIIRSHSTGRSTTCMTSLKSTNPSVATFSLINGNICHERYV

As for `CSCC[C@H](NC(=O)[C@H](CC(C)C)NC(=O)[C@H](Cc1cnc[nH]1)NC(=O)CNC(=O)[C@@H](NC(=O)[C@H](C)NC(=O)[C@H](Cc1c[nH]c2ccccc12)NC(=O)[C@@H](N)CCC(N)=O)C(C)C)C(N)=O` [BBN7–14], in series [1], the “t1/2 of degradation during incubation in rat hepatocytes” value was 4 min.

Broadly, the IC50 is the concentration that gives 50% inhibition. Read a low IC50 as greater potency. Turning to `CSCC[C@H](NC(=O)[C@H](CC(C)C)NC(=O)[C@H](Cc1c[nH]cn1)NC(=O)CNC(=O)[C@@H](NC(=O)[C@H](C)NC(=O)[C@H](Cc1c[nH]c2ccccc12)NC(=O)[C@H](CCC(N)=O)NC(=O)CCCCCNC(=O)CN1CCN(CC(=O)O)CCN(CC(=O)O)CC1)C(C)C)C(N)=O` [NOTA–Aca–BBN7–14], the IC50 at GRPR came to 1.8 ± 0.67 nM.
